Publication PMC10572855, “Phenotypic Test of Benzo[4,5]imidazo[1,2-c]pyrimidinone-Based Nucleoside and Non-Nucleoside Derivatives against DNA and RNA Viruses, Including Coronaviruses” (International Journal of Molecular Sciences, 2023)

What was measured:
[1] = test system: Vero cells; details: minimum cytotoxic concentration, microscopically detectable alteration of cell morphology
[2] = in vitro; details: green monkey
[3] = test system: SARS-CoV-2 UC-1074 (Wuhan); assay: Cytopathic effect reduction, SARS-CoV-2 UC-1074 (Wuhan) in Vero cells; type: cell-based; details: Severe acute respiratory syndrome coronavirus 2, UC1074, CPE reduced by 50%, 100 TCID50, read-out: Antiviral Activity (EC50) UC-1074 (Wuhan)
[4] = test system: SARS-CoV-2 NVDBB-2220 (UK); assay: Cytopathic effect reduction, SARS-CoV-2 NVDBB-2220 (UK) in Vero cells; type: cell-based; details: Severe acute respiratory syndrome coronavirus 2, CPE reduced by 50%, 100 TCID50, read-out: Antiviral Activity (EC50) NVDBB-2220 (UK)
[5] = test system: SARS-CoV-2 860-J1 (Delta); assay: Cytopathic effect reduction, SARS-CoV-2 860-J1 (Delta) in Vero cells; type: cell-based; details: Severe acute respiratory syndrome coronavirus 2, CPE reduced by 50%, 100 TCID50, read-out: Antiviral Activity (EC50) 860-J1 (Delta)
[6] = test system: SARS-CoV-2 B1.1 529 BA.1 (Omicron); assay: Cytopathic effect reduction, SARS-CoV-2 B1.1 529 BA.1 (Omicron) in Vero cells; type: cell-based; details: Severe acute respiratory syndrome coronavirus 2, CPE reduced by 50%, read-out: Antiviral Activity (EC50) B1.1 529 BA.1 (Omicron)
[7] = test system: TK+ VZV strain OKA; assay: microbe, parasite or virus in culture; type: cell-based, Varicella zoster virus; details: Human alphaherpesvirus 3, HEL 299, read-out: Antiviral Activity (EC50) TK+ VZV Strain OKA
[8] = test system: HEL299 cells; details: minimum cytotoxic concentration, microscopically detectable alteration of cell morphology
Experimental: (§1) Cells were seeded at a rate of 5 × 10^3 cells/well into 96-well plates and allowed to proliferate for 24 h. Then, a medium containing different concentrations of the test compounds, starting at 100 mM, was added. After 3 days of incubation at 37 °C, the cell count was determined with a Beckman Coulter counter or, alternatively, cell viability was determined with the colorimetric formazan-based MTS assay. […] The cytotoxic effects of the compounds were also assessed by evaluating the MCC (minimum cytotoxic concentration that causes a microscopically detectable alteration of cell morphology).

[9] = test system: TK- VZV strain 07-1; assay: microbe, parasite or virus in culture; details: Human alphaherpesvirus 3, HEL 299, read-out: Antiviral Activity (EC50) TK− VZV Strain 07-1
[10] = Cell growth inhibition in HEL299 cells, Coulter Counter; type: cell-based; details: human, 3 days of cell growth, read-out: Cytotoxicity Cell Growth (CC50)
Experimental: as §1

[11] = test system: TK- VZV strain 07-1; assay: in vitro; details: human
[12] = molecular target: T1, SARS-CoV-2 N-protein and stem-loop vgRNA fragment condensates (Severe acute respiratory syndrome coronavirus 2, UniProt P0DTC9); assay: Cell-free LLPS assay, N-protein:vgRNA condensates; type: biochemical
T1 construct: His-tag; made in house

[13] = test system: HCoV 229E; assay: Cytopathic effect reduction, HCoV 229E; type: cell-based, Human coronavirus 229E; details: Human coronavirus 229E; reduction of virus-induced cytopathic effect by 50%; virus input 100 TCID50; read-out: Antiviral Activity (EC50) HCoV 229E
[14] = test system: RSV (Long); assay: Cytopathic effect reduction, RSV (Long); type: cell-based, Respiratory syncytial virus; details: human respiratory syncytial virus; reduction of virus-induced cytopathic effect by 50%; virus input 100 TCID50; read-out: Antiviral Activity (EC50) RSV Long
[15] = Cytotoxicity in Huh7 cells, MTS assay; type: cell-based, Human; details: human, Huh7 cells, cell growth reduced by 50%
Experimental: as §1

[16] = test system: HCoV NL63; assay: Cytopathic effect reduction, HCoV NL63; type: cell-based, Human coronavirus NL63; details: Human coronavirus NL63; reduction of virus-induced cytopathic effect by 50%; virus input 100 TCID50; read-out: Antiviral Activity (EC50) HCoV NL63
[17] = Cytotoxicity in HEL299 cells, MTS assay; type: cell-based, Human; details: human, HEL299 cells, cell growth reduced by 50%
Experimental: as §1

[18] = test system: HCoV OC43; assay: Cytopathic effect reduction, HCoV OC43; type: cell-based, Human coronavirus OC43; details: Betacoronavirus 1, OC43; reduction of virus-induced cytopathic effect by 50%; virus input 100 TCID50; read-out: Antiviral Activity (EC50) HCoV OC43
[19] = molecular target: SARS-CoV-2 RdRp (nsp12, nsp7-nsp8) (Severe acute respiratory syndrome coronavirus 2, UniProt P0DTD1); assay: In vitro transcription assay with SARS-CoV-2 RdRp; type: biochemical; details: RdRp 1 µM, RNA substrate 25 nM, 100 µM NTPs, 30 °C; read-out: IC50, inhibition of RdRp activity (RNA primer extension)
[20] = test system: SARS-CoV-2 (all strains); assay: Cytopathic effect reduction, various SARS-CoV-2 strains in Vero cells; type: cell-based; details: Severe acute respiratory syndrome coronavirus 2, read-out: EC50 against all SARS-CoV-2 strains
[21] = 20 µM compound, 3 µM N-protein, 6 µM RNA

Row | Compound | Cytotoxicity Cell Morphology (MCC) [1] | EC50 [3] | EC50 [6] | EC50 [7] | Cytotoxicity Cell Morphology (MCC) [8] | EC50 [9] | EC50 [13] | EC50 [14] | CC50 at 3 days [15] | EC50 [16] | CC50 at 3 days [17] | EC50 [18] | also measured
1 | CC(C)C(=O)OC[C@H]1O[C@@H](n2ccc(NO)nc2=O)[C@H](O)[C@@H]1O [Molnupiravir] | >100 μM | 5.52 ± 0.28 µM | 5.2 ± 0.23 µM |  |  |  |  |  |  |  |  |  | CC50 [2]: > 100 µM; EC50 [4]: 3.08 ± 2.12 µM; EC50 [5]: 5.78 ± 0.29 µM
2 | O=c1[nH]c(=O)n([C@H]2C[C@H](O)[C@@H](CO)O2)cc1/C=C/Br [Brivudine, reference compound] |  |  |  | 0.1 ± 0.07 µM | >100 μM | 0.14 ± 0.03 µM |  |  |  |  |  |  | CC50 at 3 days [10]: > 100 µM
3 | COc1ccc(C(OC[C@H]2O[C@@H](n3ccc4nc5cc(OC)ccc5n4c3=O)C[C@@H]2O)(c2ccccc2)c2ccc(OC)cc2)cc1 [Compound 7a, 2-((2R,4S,5R)-5-((bis(4-methoxyphenyl)(phenyl)methoxy)methyl)-4-hydroxytetrahydrofuran-2-yl)-7-methoxybenzo[4,5]imidazo[1,2-c]pyrimidin-1(2H)-one] | >100 μM | > 20 µM | > 100 µM | 8.15 ± 3.59 µM | 100 μM | 3.28 ± 2.23 µM |  |  |  |  |  |  | selectivity ratio [11]: > 30; CC50 at 3 days [10]: > 100 µM; effect on LLPS / condensates (summary in words) ([12]; 20 µM compound): caused no changes
4 | COc1ccc(C(OC[C@H]2O[C@@H](n3ccc(N)nc3=O)C[C@@H]2O)(c2ccccc2)c2ccc(OC)cc2)cc1 [Compound 9a, 4-amino-1-((2R,4S,5R)-5-((bis(4-methoxyphenyl)(phenyl)methoxy)methyl)-4-hydroxytetrahydrofuran-2-yl)pyrimidin-2(1H)-one] | >100 μM | > 100 µM | > 100 µM | > 20 µM | 100 μM | > 20 µM |  |  |  |  |  |  | effect on LLPS / condensates (summary in words) ([12]; 20 µM compound): reduced droplet density but did not prevent LLPS; decrease in the partitioning coefficient [12, 21]: approximately 4 fold
5 | CCC(CC)COC(=O)[C@H](C)N[P@](=O)(OC[C@H]1O[C@@](C#N)(c2ccc3c(N)ncnn23)[C@H](O)[C@@H]1O)Oc1ccccc1 [Remdesivir, reference compound] | ≥40 μM | 1.96 ± 1 µM | 0.91 ± 0.17 µM |  |  |  | 0.03 µM | 0.02 µM | > 10 µM | 0.03 µM | > 10 µM | 0.03 µM | CC50 [2]: ≥ 40 µM; EC50 [4]: 0.72 ± 0.15 µM; EC50 [5]: 3.23 ± 0.61 µM
6 | COc1ccc2c(c1)nc1ccn([C@H]3C[C@H](O)[C@@H](CO)O3)c(=O)n12 [Compound 8a, 2-((2R,4S,5R)-4-hydroxy-5-(hydroxymethyl)tetrahydrofuran-2-yl)-7-methoxybenzo[4,5]imidazo[1,2-c]pyrimidin-1(2H)-one] | 100 μM | > 20 µM | > 20 µM | > 20 µM | 100 μM | > 20 µM |  |  |  |  |  |  | 
7 | COc1ccc2c(c1)nc1ccn([C@@H]3O[C@H](CO)[C@@H](O)[C@H]3O)c(=O)n12 [Compound 8b, 2-((2R,3R,4S,5R)-3,4-dihydroxy-5-(hydroxymethyl)tetrahydrofuran-2-yl)-7-methoxybenzo[4,5]imidazo[1,2-c]pyrimidin-1(2H)-one] | 100 μM | > 20 µM | > 20 µM | > 20 µM | 100 μM | > 20 µM |  |  |  |  |  |  | 
8 | COc1ccc(C(OC[C@H]2O[C@@H](n3ccc4nc5cc(O)ccc5n4c3=O)[C@H](O)[C@@H]2O)(c2ccccc2)c2ccc(OC)cc2)cc1 [Compound 3b, 2-((2R,3R,4S,5R)-5-((bis(4-methoxyphenyl)(phenyl)methoxy)methyl)-3,4-dihydroxytetrahydrofuran-2-yl)-7-hydroxybenzo[4,5]imidazo[1,2-c]pyrimidin-1(2H)-one] | 20 μM | > 20 µM | > 20 µM | > 4 µM | 20 μM | > 4 µM | 4.1 ± 2 µM | 5.7 ± 0.8 µM | < 0.8 µM | > 100 µM | > 20 µM | < 0.8 µM | IC50 [19]: 95 ± 4 µM; effect on LLPS / condensates (summary in words) ([12]; 20 µM compound): minor
9 | COc1ccc(C(OC[C@H]2O[C@@H](n3ccc4nc5cc(OC)ccc5n4c3=O)[C@H](O)[C@@H]2O)(c2ccccc2)c2ccc(OC)cc2)cc1 [Compound 7b, 2-((2R,3R,4S,5R)-5-((bis(4-methoxyphenyl)(phenyl)methoxy)methyl)-3,4-dihydroxytetrahydrofuran-2-yl)-7-methoxybenzo[4,5]imidazo[1,2-c]pyrimidin-1(2H)-one] | >100 μM | > 20 µM | > 20 µM | 30.7 ± 4.68 µM | ≥100 μM | 7.13 ± 0.94 µM |  |  |  |  |  |  | CC50 at 3 days [10]: 10.3 ± 5.63 µM
10 | COc1ccc(C(OC[C@H]2O[C@@H](n3ccc(N)nc3=O)[C@H](O)[C@@H]2O)(c2ccccc2)c2ccc(OC)cc2)cc1 [Compound 9b, 4-amino-1-((2R,3R,4S,5R)-5-((bis(4-methoxyphenyl)(phenyl)methoxy)methyl)-3,4-dihydroxytetrahydrofuran-2-yl)pyrimidin-2(1H)-one] | 100 μM | > 20 µM | > 20 µM | > 4 µM | ≥20 μM | > 20 µM |  |  |  |  |  |  | 
11 | Nc1nc2c(ncn2COCCO)c(=O)[nH]1 [Aciclovir, reference compound] |  |  |  |  | >100 μM |  |  |  |  |  |  |  | CC50 at 3 days [10]: > 100 µM
12 | CCCCCCCCCCCCOc1ccc2c(c1)nc1cc[nH]c(=O)n12 [Compound 6e, 7-(dodecyloxy)benzo[4,5]imidazo[1,2-c]pyrimidin-1(2H)-one] |  |  |  |  |  |  | > 100 µM | > 100 µM | > 100 µM | > 100 µM | > 100 µM | > 100 µM | 
13 | COc1ccc(C(OC[C@H]2O[C@@H](n3ccc4nc5cc(O)ccc5n4c3=O)C[C@@H]2O)(c2ccccc2)c2ccc(OC)cc2)cc1 [Compound 3a, 2-((2R,4S,5R)-5-((bis(4-methoxyphenyl)(phenyl)methoxy)methyl)-4-hydroxytetrahydrofuran-2-yl)-7-hydroxybenzo[4,5]imidazo[1,2-c]pyrimidin-1(2H)-one] |  | 8.82 ± 0.21 µM | 10.6 ± 0.7 µM | > 4 µM | 20 μM | > 4 µM | 8.5 ± 0.36 µM | 0.67 ± 0.23 µM | < 0.8 µM | > 100 µM | > 100 µM | < 0.8 µM | CC50 [2]: > 100 µM; EC50 [20]: ~10 µM; IC50 [19]: 94 ± 3 µM; EC50 [4]: 8.92 ± 6.38 µM; EC50 [5]: 11.3 ± 3.5 µM; effect on LLPS / condensates (summary in words) ([12]; 20 µM compound): robust LLPS inhibitor; decrease of the average number of droplets [12, 21]: approximately 60%; decrease of the partitioning coefficient (droplet/solution N-protein concentration ratio) [12, 21]: 60–70%; median droplet diameter [12, 21]: 1.1 µm; EC50 ([12]; dose-dependent effect, 3 µM N-protein, 6 µM RNA, read-out: EC50 of inhibition of condensate formation (LLPS)): ≤ 10 µM
14 | CCCCCCCCCCOc1ccc2c(c1)nc1cc[nH]c(=O)n12 [Compound 6d, 7-(decyloxy)benzo[4,5]imidazo[1,2-c]pyrimidin-1(2H)-one] |  |  |  |  |  |  | > 100 µM | > 100 µM | > 100 µM | > 100 µM | > 100 µM | > 100 µM | 
